The record followed here is patent publication US20040096815A1, “Method of identifying an eventual modification of at least one biological parameter making use of living cells which are subjected to a stress and living cells which are not subjected to this same stress” (COLETICA, priority 2002, published 2004).

Assay [1] has as its system pigmented reconstructed skins. In words: Interleukin secretion (Fluorokine MAP) of pigmented reconstructed skins under repeated solar irradiation with anti-oxidant actives. It counts as cell-based. Particulars: for restoring cell viability and synthesis of pro-inflammatory interleukins after solar irradiation: actives at 3% in a cosmetic formulation; for IL1 beta secretion (Fluorokine MAP) / IL6 secretion (Fluorokine MAP) / IL8 secretion (Fluorokine MAP) / TNF alpha secretion (Fluorokine MAP): solar irradiation 561 KJ/m^2 twice per week for two weeks, 8 μl cosmetic formulation with active at 3%, 10 days. How it is done:
The reconstructed dermis comprising cells called <<stressed cells>> or <<reference cells>> are then incubated in a medium without serum (FBM, Promocell) for 24 hours. The cell viability in the matrices is evaluated by a test with MTT (methylthiazoletetrazolium) and is expressed in percentage of the non-irradiated control. The media are collected, centrifuged, and the cytokines content is determined by the Fluorokine MAP kit (R&D Systems). Briefly, 50 μl of standards or of samples are pipetted into identified wells. 50 μl of microparticles immobilizing specific antibodies of different cytokines are added into the wells as a function of a pre-defined plate plan. After one hour of incubation under orbital agitation, and elimination of the non-fixed substances by washing, labeled antibodies which are specific of different cytokines are added into the wells and are incubated for 2 hours under orbital agitation. After washing, the microparticles are suspended in washing buffer, are agitated for 1 minute under orbital agitation. The reading is carried out immediately on a Luminex 100 Analyser (R&D Systems). The contents of the different cytokines which are present in the media analyzed are determined by virtue of calibration ranges made with highly purified recombinant human cytokines. This technique enables an experimentation to analyze the cellular secretion of various cytokines (IL-1β, IL-2, IL-4, IL-6, IL-8, IL-10, TNFα, GM-CSF, G-CSF, VEGF, bFGF, G-CSF, IFNγ).
The cells extracted are obtained from a mammary biopsy non-exposed to the stress studied. 400,000 fibroblasts, amplified until passage 5 (5th amplification by trypsination) as described in Example 1, are sown on dermal substrates based on surfaced sponges of collagen, in a DMEM-Glutamax culture medium supplemented with 10% of hyclone II calf serum, with ascorbic acid-2-phosphate at a final concentration of 1 millimolar, with EGF or Epidermal growth factor at a final concentration of 10 ng/mL, with penicillin at a final concentration of 100 IU/milliliter, with amphotericin B at a final concentration of 1 microgram/milliliter, and with gentamycin at a final concentration of 20 micrograms/milliliter, and for a period of culture of 14 days.
Then, 400,000 keratinocytes and 10,000 melanocytes, amplified until passage 2 (2nd amplification by trypsination) as described in Example 1, are sown on the dermal equivalents in a DMEM-Glutamax/Ham F-12 (ratio 3/1 v/v) culture medium supplemented with 10% of Hyclone II calf serum, with ascorbic acid-2-phosphate at a final concentration of 1 millimolar, with EGF at a final concentration of 10 ng/mL, with hydrocortisone at a final concentration of 0.4 micrograms/milliliter, with umulin at a final concentration of 0.12 IU/milliliter, with isuprel at a final concentration of 0.4 micrograms/milliliter, with triiodothyronine at a final concentration of 2.10^−9 molar, with adenine at a final concentration of 24.3 micrograms/milliliter, with penicillin at a final concentration of 100 IU/milliliter, with amphotericin B at a final concentration of 1 microgram/milliliter, and with gentamycin at a final concentration of 20 micrograms/milliliter, and for a period of immersion culture of 7 days.
The cultures are then placed at the air-liquid interface for 14 days in the same culture medium as that used for the immersion culture, except the calf serum, the hydrocortisone, the isuprel, the triiodothyronine and the umulin.
Twice per week and for two weeks, the immersion medium is eliminated and replaced by PBS at pH 7.4. Certain pigmented reconstructed skins present in the inserts are preserved at ambient temperature; this model comprises cells which are called “reference cells”. Other pigmented reconstructed skins present in the inserts are irradiated at 561 KJ/m^2 (corresponding to an average hour of exposure in Central Europe) with the aid of a solar irradiator Suntest CPS+ (ATLAS); this model comprises cells which are called “stressed cells”.

Another assay relates to reconstructed skins. How it is done: Reconstructed skins are made according to the protocol described in Example 6.
The UVB irradiation at the rate of 50 mJ/cm^2 is made for half the samples comprising <> cells. The other samples are preserved at ambient temperature under the same conditions, and constitute samples comprising <> cells.
At the end of experimentation, the content of tropoelastin mRNA, collagen of type I and collagen of type III is evaluated by a real time RT-PCR technique. For this, couples of primers enabling the amplification of specific fragments of tropoelastin, of collagen of type I and of collagen of type III (sense 18/antisense 19 and sense 18/antisense 20, respectively) and actin sequence primers (541 pairs of bases) were used. After extraction in TriReagent® (Sigma) and purification of the RNAs according to the protocol of the supplier, the reactions of RT-PCR (Reverse Polymerase Transcription Chain reactions) are carried out by quantitative real time RT-PCR with the aid of the <<Opticon>> system (MJ Research).
The reaction mixture (50 μl) introduced into the well is the following, for each sample:
10 μl of RNA at the concentration of 5 ng/μl.
The primers of the various labelers used
Reaction mixture (Qiagen-25 μl 2×QuantiTect SYBR Green RT-PCR master mix containing 5 mM MgCl2+0.5 μl QuantiTect RT mix), the labeler SYBR Green I inserting itself in the DNA double strand during elongation step).
Reverse transcription: 30 min at 50° C.,
PCR reactions: [15 sec at 94° C., 30 sec at 60° C. and 30 sec at 72° C.], 50 cycles.
The absence of contamination and the purity of the products amplified are verified by the melting curves of the amplified PCR products. The products having a double peak or an abnormal melting temperature are eliminated.
The incorporation of fluorescence in the amplified DNA was evaluated continuously during the PCR cycles. This system enables obtaining fluorescence measurement curves as a function of the number of PCR cycles and thus to evaluate a relative quantity of amplified DNA.
In order to take account of the:cell population present in the reconstructed skins, all the results were attributed to the signal <>, used as housekeeping gene.
According to the experimentation, the measurement threshold of the C(T) (=cycle threshold) is fixed for T between 0.05 and 0.01 and then an arbitrary unit of measurement is calculated for each gene according to the formula:
Sgene <>=10^7X(½)^C(T)gene <<X>>
C(T)gene <> signifying the measurement threshold of the C(T) (Cycle Threshold) of the gene <>.
The values of the genes of interest are attributed to the signal <> by calculation of the ratio:
These ratios are compared between the treated and non-treated samples.

The test system of assay [2] is reconstructed gingival mucous membrane epithelia. Briefly: mRNA Expression Array on reconstructed gingival mucous membrane epithelia treated with irritant/sensitizing agents or actives. It counts as cell-based. Particulars: (treated/non-stressed)x100; 20 μl per epithelium 1 h, then 24 h; SLS 5%, LPS 1000 U/ml, Prednisolone 10 mM, Inhipase 3%. An excerpt:
1 to 2.10^6 epithelial cells of gingival mucous membrane called <<reference gingival mucous membrane epithelia cells>> (gingival biopsy, Passage 3 (3rd amplification by trypsination)), extracted as described in Example 1, are sown in Boyden chamber-type inserts (membrane of porosity 0.4 μm and diameter 10 mm—fibroblast nutrient under layer), in a DMEM-Glutamax/Ham F-12 (ratio 3/1 v/v) culture medium supplemented with 10% of Hyclone II calf serum, with ascorbic acid-2-phosphate at a final concentration of 1 millimolar, with EGF at a final concentration of 10 ng/mL, with hydrocortisone at a final concentration of 0.4 micrograms/milliliter, with umulin at a final concentration of 0.12 IU/milliliter, with isuprel at a final concentration of 0.4 micrograms/milliliter, with triiodothyronine at a final concentration of 2.10^−9 molar, with adenine at a final concentration of 24.3 micrograms/milliliter, with penicillin at a final concentration of 100 IU/milliliter, with amphotericin B at a final concentration of 1 microgram/milliliter, and with gentamycin at a final concentration of 20 micrograms/milliliter, and for a period of culture by immersion of 3 to 8 days.
The cultures of epithelial cells are then maintained in immersion for 12 to 18 days in the same culture medium as that used for the immersion culture, except the percentage of calf serum which is lowered by 10% to 1%.
At the end of experimentation, the medium is eliminated and replaced with PBS pH 7.4, and the reconstructed epithelia Which are present in the inserts are stressed by various potentially irritant or sensitizing agents, at the rate of 20 μl per epithelium and for one hour: 5% sodium lauryl sulfate (SLS), Lipopolysaccharide (LPS) 1000 U/ml, an anti-inflammatory agent Prednisolone 10 mM (Sigma) and an active Inhipase® 3% (extract of the root of pueraria lobata, Coletica) also at the rate of 20 μl per epithelium, for 1 hour. The agents applied on the reconstructed epithelia are then eliminated and then the reconstructed epithelia are incubated for 24 additional hours in immersion medium without calf serum. Certain reconstructed epithelia are analyzed in terms of cell viability by a test with MTT (methylthiazoletetrazolium). Other reconstructed epithelia are scraped off and taken up into Tri Reagent® (T9424 Sigma, St Louis USA) and then extracted with chloroform. After centrifugation at 12,000 g for 15 minutes at 4° C., the RNAs are found in the upper layer.
The determination of the mRNAs of the epithelia is made by Expression Array (R&D System), according to the protocol defined by the supplier.

[3] abbreviates: UVB 50 mJ/cm^2, then 24 h with active at 1%.
Where [4] appears, read: UVB 50 mJ/cm^2, then 24 h with active at 3%.

Like-named read-outs stand apart in the source and are kept apart here.

With Quercitine Caprylate [Flavenger ®], in assay [1], the “restoring cell viability and synthesis of pro-inflammatory interleukins after solar irradiation” value is recorded as “have shown an effectiveness capable of tending to restoring the reference level for these two parameters”; the “IL1 beta secretion (Fluorokine MAP)” value is 97 pg/mL; the “IL6 secretion (Fluorokine MAP)” value was found to be 426 pg/mL; the “IL8 secretion (Fluorokine MAP)” value stood at 294 pg/mL. In assay [1], the “TNF alpha secretion (Fluorokine MAP)” value is 89 pg/mL. Also, the “limiting the UVB-induced increase in RNAs of collagen type I, type III and elastin” value in the assay on reconstructed skins (1 and 3%) is “enables limiting the effects of the UVB stress induced by restoring, in a dose-dependent manner, the synthesis of these molecules”. In addition, in the assay with reconstructed skins (setting [3]), the “Collagen I mRNA, ratio R = Sgene/Sactin” value is 0.94; the “Collagen III mRNA, ratio R = Sgene/Sactin” value amounted to 1.37; the “Elastin mRNA, ratio R = Sgene/Sactin” value is 4.87. In addition, in the assay with reconstructed skins (setting [4]), the “Collagen I mRNA, ratio R = Sgene/Sactin” value is on record as 0.92; the “Collagen III mRNA, ratio R = Sgene/Sactin” value came to 1.26; the “Elastin mRNA, ratio R = Sgene/Sactin” value turned out to be 4.61.
For the compound Hesperitine Laurate [Flavagrum ®], in assay [1], the “restoring cell viability and synthesis of pro-inflammatory interleukins after solar irradiation” value is reported as “have shown an effectiveness capable of tending to restoring the reference level for these two parameters”; the “IL1 beta secretion (Fluorokine MAP)” value came out at 125 pg/mL; the “IL6 secretion (Fluorokine MAP)” value was 452 pg/mL; the “IL8 secretion (Fluorokine MAP)” value stood at 312 pg/mL. Further, the “TNF alpha secretion (Fluorokine MAP)” value in assay [1] was 105 pg/mL.
As to `C[C@]12C=CC(=O)C=C1CC[C@@H]1[C@@H]2[C@@H](O)C[C@@]2(C)[C@H]1CC[C@]2(O)C(=O)CO` [Prednisolone], in assay [2], the “IL1α mRNA, factor of variation with respect to the non-stressed control” value came out at 62; the “IL1β mRNA, factor of variation with respect to the non-stressed control” value stood at 75; the “IL6 mRNA, factor of variation with respect to the non-stressed control” value is 81; the “IL7 mRNA, factor of variation with respect to the non-stressed control” value is 102. Also, in assay [2], the “IL8 mRNA, factor of variation with respect to the non-stressed control” value is 105; the “IL10 mRNA, factor of variation with respect to the non-stressed control” value stood at 152; the “IL11 mRNA, factor of variation with respect to the non-stressed control” value worked out at 101; the “IL12 mRNA, factor of variation with respect to the non-stressed control” value amounted to 67. For the same compound, in assay [2], the “IL15 mRNA, factor of variation with respect to the non-stressed control” value is recorded as 99; the “IL-1R AcP mRNA, factor of variation with respect to the non-stressed control” value is recorded as 95; the “IL-1RI mRNA, factor of variation with respect to the non-stressed control” value worked out at 83; the “IL-1RII mRNA, factor of variation with respect to the non-stressed control” value amounted to 88. Further, in assay [2], the “IL-1ra mRNA, factor of variation with respect to the non-stressed control” value stood at 112; the “PLA2 mRNA, factor of variation with respect to the non-stressed control” value is on record as 93; the “TNFα mRNA, factor of variation with respect to the non-stressed control” value is listed as 67.
As for `CCCCCCCCCCCCOS(=O)(=O)[O-].[Na+]` [SLS, sodium lauryl sulfate], in assay [2], the “IL1α mRNA, factor of variation with respect to the non-stressed control” value stood at 241; the “IL1β mRNA, factor of variation with respect to the non-stressed control” value is 114; the “IL6 mRNA, factor of variation with respect to the non-stressed control” value came out at 163; the “IL7 mRNA, factor of variation with respect to the non-stressed control” value is recorded as 127. For the same compound, in assay [2], the “IL8 mRNA, factor of variation with respect to the non-stressed control” value came to 183; the “IL10 mRNA, factor of variation with respect to the non-stressed control” value was 75; the “IL11 mRNA, factor of variation with respect to the non-stressed control” value is reported as 112; the “IL12 mRNA, factor of variation with respect to the non-stressed control” value is 132. Moreover, in assay [2], the “IL15 mRNA, factor of variation with respect to the non-stressed control” value came to 147; the “IL-1R AcP mRNA, factor of variation with respect to the non-stressed control” value came out at 102; the “IL-1RI mRNA, factor of variation with respect to the non-stressed control” value was 154; the “IL-1RII mRNA, factor of variation with respect to the non-stressed control” value was found to be 137. Besides, in assay [2], the “IL-1ra mRNA, factor of variation with respect to the non-stressed control” value was 82; the “PLA2 mRNA, factor of variation with respect to the non-stressed control” value is reported as 102; the “TNFα mRNA, factor of variation with respect to the non-stressed control” value amounted to 213.
